≈ marks a conversion by molar mass, not a printed value.
The molecules below were run on S aureus A798 (assay: Minimal inhibitory concentration (MIC), microdilution method in cation-adjusted Mueller-Hinton Broth following NCCLS guidelines). Details: pH of test medium 7.2-7.3.
Assay type: cell-based
Summary of the method: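 MICs (mg/l) came from NCCLS-guided microdilution, using cation-adjusted Mueller-Hinton medium adjusted to pH 7.2-7.3.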

`COc1ccc2nccc(N3CCN(CC4CN(c5ccc6c(c5)OCCO6)C(=O)O4)CC3)c2n1` (racemic) [Example 8, (RS)-3-(2,3-Dihydro-benzo[1,4]dioxin-6-yl)-5-[4-(6-methoxy-[1,5]naphthyridin-4-yl)-piperazin-1-ylmethyl]-oxazolidin-2-one] and `COc1ccc2nccc(N3CCN(C[C@@H]4CN(c5ccc6c(c5)OCO6)C(=O)O4)CC3)c2n1` [Example 35, (R)-3-Benzo[1,3]dioxol-5-yl-5-[4-(6-methoxy-[1,5]naphthyridin-4-yl)-piperazin-1-ylmethyl]-oxazolidin-2-one] cannot be ordered by MIC: ≤ 0.031 µg/mL for the first, ≤ 0.031 µg/mL for the second.

`COc1ccc2nccc(N3CC[C@H](NCCC4CN(c5ccc6c(c5)NC(=O)CS6)C(=O)O4)C3)c2n1` (mixture of isomers) [Example 86, 6-((RS)-5-{2-[(S)-1-(6-Methoxy-[1,5]naphthyridin-4-yl)-pyrrolidin-3-ylamino]-ethyl}-2-oxo-oxazolidin-3-yl)-4H-benzo[1,4]thiazin-3-one] and `COc1ccc2nccc(N3C[C@H]4CCN(C[C@@H]5CN(c6ccc7c(c6)NC(=O)CS7)C(=O)O5)[C@H]4C3)c2n1` (mixture of isomers) [Example 93, 6-{(R)-5-{[(3aR*,6aR*)-5-(6-Methoxy-[1,5]naphthyridin-4-yl)-hexahydro-pyrrolo[3,4-b]pyrrol-1-yl]-methyl}-2-oxo-oxazolidin-3-yl}-4H-benzo[1,4]thiazin-3-one] cannot be ordered by MIC: ≤ 0.031 µg/mL for the first, ≤ 0.031 µg/mL for the second.

Going from `COc1ccc2ncc(F)c(N3CC[C@H](NC[C@@H]4CN(c5ccc(OC(F)F)cc5)C(=O)O4)C3)c2n1` [Example 171, (R)-3-(4-Difluoromethoxy-phenyl)-5-{[(S)-1-(3-fluoro-6-methoxy-[1,5]naphthyridin-4-yl)-pyrrolidin-3-ylamino]-methyl}-oxazolidin-2-one] to `COc1ccc2ncc(F)c(N3CC(NC[C@@H]4CN(c5ccc(C)c(F)c5)C(=O)O4)C3)c2n1` [Example 46, (R)-5-{[1-(3-Fluoro-6-methoxy-[1,5]naphthyridin-4-yl)-azetidin-3-ylamino]-methyl}-3-(3-fluoro-4-methyl-phenyl)-oxazolidin-2-one], the MIC falls from 0.063 µg/mL (≈ 0.125 µM) to ≤ 0.031 µg/mL.

`COc1ccc2nccc(N3CC(N(C)C[C@@H]4CN(c5ccc(OC(F)F)cc5)C(=O)O4)C3)c2n1` [Example 134, (R)-3-(4-Difluoromethoxy-phenyl)-5-({[1-(6-methoxy-[1,5]naphthyridin-4-yl)-azetidin-3-yl]-methyl-amino}-methyl)-oxazolidin-2-one] and `COc1ccc2nccc(N3CC(N(C)C[C@@H]4CN(c5ccc(C)c(C)c5)C(=O)O4)C3)c2n1` [Example 138, (R)-3-(3,4-Dimethyl-phenyl)-5-({[1-(6-methoxy-[1,5]naphthyridin-4-yl)-azetidin-3-yl]-methyl-amino}-methyl)-oxazolidin-2-one] cannot be ordered by MIC: ≤ 0.031 µg/mL for the first, ≤ 0.031 µg/mL for the second.

`COc1ccc2nccc(N3CCN(C[C@@H]4CN(c5ccc(C)c(Br)c5)C(=O)O4)CC3)c2n1` [Example 32, (R)-3-(3-Bromo-4-methyl-phenyl)-5-[4-(6-methoxy-[1,5]naphthyridin-4-yl)-piperazin-1-ylmethyl]-oxazolidin-2-one] and `COc1ccc2nccc(N3CCN(C[C@@H]4CN(c5ccc(F)c(Cl)c5)C(=O)O4)CC3)c2n1` [Example 17, (R)-3-(3-Chloro-4-fluoro-phenyl)-5-[4-(6-methoxy-[1,5]naphthyridin-4-yl)-piperazin-1-ylmethyl]-oxazolidin-2-one] cannot be ordered by MIC: ≤ 0.031 µg/mL for the first, ≤ 0.031 µg/mL for the second.

First: COc1ccc2nccc(N3CCCC(NC[C@@H]4CN(c5ccc6c(c5)OCCO6)C(=O)O4)C3)c2n1 (mixture of isomers) [Example 102, (R)-3-(2,3-Dihydro-benzo[1,4]dioxin-6-yl)-5-{[(RS)-1-(6-methoxy-[1,5]naphthyridin-4-yl)-piperidin-3-ylamino]-methyl}-oxazolidin-2-one]
Second: COc1ccc2nccc(N3CC[C@H](NC[C@@H]4CN(c5ccc6c(c5)OCCO6)C(=O)O4)C3)c2n1 [Example 41, (R)-3-(2,3-Dihydro-benzo[1,4]dioxin-6-yl)-5-{[(S)-1-(6-methoxy-[1,5]naphthyridin-4-yl)-pyrrolidin-3-ylamino]-methyl}-oxazolidin-2-one]
The MIC of the first is higher: 4 µg/mL for the first, ≤ 0.031 µg/mL for the second.

Going from `COc1ccc2nccc(N3CC(C(=O)NC[C@@H]4CN(c5ccc(C)c(F)c5)C(=O)O4)C3)c2n1` [Example 148, 1-(6-Methoxy-[1,5]naphthyridin-4-yl)-azetidine-3-carboxylic acid [(R)-3-(3-fluoro-4-methyl-phenyl)-2-oxo-oxazolidin-5-ylmethyl]-amide] to `COc1ccc2nccc(N3CC[C@H](NC[C@@H]4CN(c5ccc(C)c(F)c5)C(=O)O4)C3)c2n1` [Example 67, (R)-3-(3-Fluoro-4-methyl-phenyl)-5-{[(S)-1-(6-methoxy-[1,5]naphthyridin-4-yl)-pyrrolidin-3-ylamino]-methyl}-oxazolidin-2-one], the MIC falls from 0.5 µg/mL (≈ 1.07 µM) to 0.063 µg/mL (≈ 0.14 µM) (7.9-fold).

Compared with `COc1ccc2nccc(N3CCN(C[C@@H]4CN(c5ccc(OC)c(C(F)(F)F)c5)C(=O)O4)CC3)c2n1` [Example 33, (R)-5-[4-(6-Methoxy-[1,5]naphthyridin-4-yl)-piperazin-1-ylmethyl]-3-(4-methoxy-3-trifluoromethyl-phenyl)-oxazolidin-2-one], `COc1ccc2nccc(N3CCN(C[C@@H]4CN(c5cccc(N(C)C)c5)C(=O)O4)CC3)c2n1` [Example 34, (R)-3-(3-Dimethylamino-phenyl)-5-[4-(6-methoxy-[1,5]naphthyridin-4-yl)-piperazin-1-ylmethyl]-oxazolidin-2-one] is 32-fold lower in MIC: 4 µg/mL (≈ 7.73 µM) for the first, 0.125 µg/mL (≈ 0.27 µM) for the second.

`COc1ccc2nccc(N3CCCN(C[C@H]4CN(c5ccc6c(c5)NC(=O)CS6)C(=O)O4)CC3)c2n1` [Example 166, 6-{(S)-5-[4-(6-Methoxy-[1,5]naphthyridin-4-yl)-[1,4]diazepan-1-ylmethyl]-2-oxo-oxazolidin-3-yl}-4H-benzo[1,4]thiazin-3-one] and `COc1ccc2nccc(N3CCCN(C[C@@H]4CN(c5ccc6c(c5)NC(=O)CS6)C(=O)O4)CC3)c2n1` [Example 106, 6-{(R)-5-[4-(6-Methoxy-[1,5]naphthyridin-4-yl)-[1,4]diazepan-1-ylmethyl]-2-oxo-oxazolidin-3-yl}-4H-benzo[1,4]thiazin-3-one] cannot be ordered by MIC: ≤ 0.031 µg/mL for the first, ≤ 0.031 µg/mL for the second.

Compared with `COc1ccc2nccc(N3C[C@@H](O)[C@H](NC[C@@H]4CN(c5ccc6c(c5)OCCO6)C(=O)O4)C3)c2n1` (relative stereo) [Example 77, (R)-3-(2,3-Dihydro-benzo[1,4]dioxin-6-yl)-5-{[(3R*,4R*)-4-hydroxy-1-(6-methoxy-[1,5]naphthyridin-4-yl)-pyrrolidin-3-ylamino]-methyl}-oxazolidin-2-one], `COc1ccc2nccc(N3CC[C@@H]4CN(C[C@@H]5CN(c6ccc7c(c6)OCCO7)C(=O)O5)C[C@@H]43)c2n1` (mixture of isomers) [Example 90, (R)-3-(2,3-Dihydro-benzo[1,4]dioxin-6-yl)-5-{[(3aR*,6aR*)-1-(6-methoxy-[1,5]naphthyridin-4-yl)-hexahydro-pyrrolo[3,4-b]pyrrol-5-yl]-methyl}-oxazolidin-2-one] is 16-fold higher in MIC: 0.25 µg/mL (≈ 0.507 µM) for the first, 4 µg/mL for the second.

`COc1ccc2ccc(F)c(N3CC(NC[C@@H]4CN(c5ccc6c(c5)NC(=O)CS6)C(=O)O4)C3)c2n1` [Example 159, 6-((R)-5-{[1-(7-Fluoro-2-methoxy-quinolin-8-yl)-azetidin-3-ylamino]-methyl}-2-oxo-oxazolidin-3-yl)-4H-benzo[1,4]thiazin-3-one] and `COc1ccc2ncc(F)c(N3CC(NC[C@@H]4CN(c5ccc6c(c5)NC(=O)CS6)C(=O)O4)C3)c2n1` [Example 48, 6-((R)-5-{[1-(3-Fluoro-6-methoxy-[1,5]naphthyridin-4-yl)-azetidin-3-ylamino]-methyl}-2-oxo-oxazolidin-3-yl)-4H-benzo[1,4]thiazin-3-one] cannot be ordered by MIC: ≤ 0.031 µg/mL for the first, ≤ 0.031 µg/mL for the second.

First: COc1ccc2nccc(N3C[C@H](NC[C@@H]4CN(c5ccc6c(c5)NC(=O)CO6)C(=O)O4)[C@@H](OC)C3)c2n1 [Example 181, 6-((R)-5-{[(3S,4S)-4-Methoxy-1-(6-methoxy-[1,5]naphthyridin-4-yl)-pyrrolidin-3-ylamino]-methyl}-2-oxo-oxazolidin-3-yl)-4H-benzo[1,4]oxazin-3-one]
Second: COc1ccc2nccc(N3CC(NC[C@@H]4CN(c5ccc6c(c5)NC(=O)CO6)C(=O)O4)C3)c2n1 [Example 52, 6-((R)-5-{[1-(6-Methoxy-[1,5]naphthyridin-4-yl)-azetidin-3-ylamino]-methyl}-2-oxo-oxazolidin-3-yl)-4H-benzo[1,4]oxazin-3-one]
The MIC of the first is higher: 0.25 µg/mL (≈ 0.48 µM) for the first, ≤ 0.031 µg/mL for the second.

First: COc1ccc2nccc(N3CCN(C[C@@H]4CN(c5ccccc5)C(=O)O4)CC3)c2n1 [Example 12, (R)-5-[4-(6-Methoxy-[1,5]naphthyridin-4-yl)-piperazin-1-ylmethyl]-3-phenyl-oxazolidin-2-one]
Second: COc1ccc2nccc(N3CCN(C[C@@H]4CN(c5cccc(C#N)c5)C(=O)O4)CC3)c2n1 [Example 21, 3-{(R)-5-[4-(6-Methoxy-[1,5]naphthyridin-4-yl)-piperazin-1-ylmethyl]-2-oxo-oxazolidin-3-yl}-benzonitrile]
The MIC of the first is lower: ≤ 0.031 µg/mL for the first, 0.25 µg/mL (≈ 0.562 µM) for the second.

Work on `COc1ccc2nccc(N3CCN(C[C@@H]4CN(c5ccc(N6CCCC6)cc5)C(=O)O4)CC3)c2n1` [Example 23, (R)-5-[4-(6-Methoxy-[1,5]naphthyridin-4-yl)-piperazin-1-ylmethyl]-3-(4-pyrrolidin-1-yl-phenyl)-oxazolidin-2-one] yielded an MIC of 2 µg/mL (≈ 4.09 µM).

In the case of `COc1ccc2nccc(N3CC(NC(=O)[C@@H]4CN(c5ccc6c(c5)OCCO6)C(=O)O4)C3)c2n1` [Example 116, (S)-3-(2,3-Dihydro-benzo[1,4]dioxin-6-yl)-2-oxo-oxazolidine-5-carboxylic acid[1-(6-methoxy-[1,5]naphthyridin-4-yl)-azetidin-3-yl]-amide], the “MIC S aureus A798” value is reported as “<=0.031 mg/l”.

In the case of `COc1ccc2nccc(N3CCN(C[C@H]4CN(c5ccc(C)c(F)c5)C(=O)O4)C(=O)C3)c2n1` (single isomer, unassigned) [Example 100, [(S)-3-(3-Fluoro-4-methyl-phenyl)-2-oxo-oxazolidin-5-ylmethyl]-4-(6-methoxy-[1,5]naphthyridin-4-yl)-piperazin-2-one or [(R)-3-(3-Fluoro-4-methyl-phenyl)-2-oxo-oxazolidin-5-ylmethyl]-4-(6-methoxy-[1,5]naphthyridin-4-yl)-piperazin-2-one], the “MIC S aureus A798” value is reported as 0.063 µg/mL (≈ 0.135 µM).
